The values below come from patent US7070780B2, “Treatment of demyelinating autoimmune disease with ordered peptides” (Board of Trustees of the Leland Stanford Junior University, priority 1999, dated 2006).

Entries after “also recorded” stand apart in the source; their conditions may differ.

In assay [1] the test system is experimental autoimmune encephalomyelitis in Lewis rats. The assay is described as follows: EAE treatment in Lewis rats immunized with MBPp85–99. The assay is classed as in vivo. The settings on record: EAE induced with MBPp85–99, single intraperitoneal dose of 0.5 mg peptide in PBS at disease onset. As to the method: FIG. 1 is a graph depicting the prevention of EAE in rats treated with ordered peptides. […] Animals were injected with an emulsion of 0.1 mg of MBPp85–99 in complete Freund's adjuvant for EAE induction. Ten days later, when the clinical manifestations of disease became apparent, a single intra-peritoneal dose of peptide {SEQ ID NO:4} EYYKEYYKEYYK (squares), {SEQ ID NO:5} KYYKYYKYYKYY (triangles), or PBS (circles)was administered. Results are expressed as mean disease score of groups of six animals.
Animals. Female Lewis rats (6–8 weeks old), were purchased from Harlan Sprague Dawley (Indianapolis, Ind.)
Peptides. For immunization and disease reversal, peptides were synthesized on a peptide synthesizer (model 9050: MilliGen, Burlington, Mass.) by standard 9-fluorenylmethoxycarbonyl chemistry. Peptides were purified by HPLC. Structure was confirmed by amino acid analysis and mass spectroscopy. Peptides used for the experiments were: {SEQ ID NO:11} ENPVVHFFKNIVTPR (MBPp85–99), {SEQ ID NO:4} EYYKEYYKEYYK, {SEQ ID NO:5} KYYKYYKYYKYY.
EAE Induction. […] Experimental animals were scored as follows: 0, no clinical disease; 1, tail weakness or paralysis; 2, hind limb weakness; 3, hind limb paralysis; 4, forelimb weakness or paralysis; 5, moribund or dead animal.
EAE Treatment. Rats previously immunized with MBPp85–99 for EAE induction were scored from day eight after peptide injection. […]

In assay [2] the test system is anti-MBP antibodies. Nature of the assay: Inhibition of autoantibody binding to MBP (anti-MBP antibodies affinity-purified from CNS lesions). The settings on record: anti-MBP antibodies from CNS lesions of 12 post-mortem cases. An excerpt: Previously, we have compared the structural requirements for autoantibody recognition to those of T cell clones reactive to MBP p87–99. Anti-MBP antibodies were affinity-purified from CNS lesions of 12 post-mortem cases studied. The MBP p87–99 peptide was immunodominant in all cases and it inhibited autoantibody binding to MBP by more than 95%. Residues contributing to autoantibody binding were located in a 10-amino acid segment p86–95 ({SEQ ID NO:9} VVHFFKNIVT) that also contained the MHC-T cell receptor contact residues for T cells recognizing MBP in the context of DRB1*1501 and DQB1*0602. In the epitope center, the same residues, {SEQ ID NO:10} VHFFK, were important for T cell binding and MHC recognition. Recently, the crystal structure of HLA-DR2 with MBPp85–99 was solved, confirming the prediction that K91 is the major TCR contact residue, while F90 is a major anchor into the hydrophobic P4 pocket of the MHC molecule.

For the substance “EYYKEYYKEYYK [ordered peptide of the repeated motif EYYK (n=3)]”, the “effect on EAE (mean disease score)” value in assay [1] is “prevents the development of EAE; also recorded: effective in preventing and treating experimental autoimmune encephalomyelitis”.

As for “MBP p87–99: peptide of residues 87–99 of myelin basic protein, immunodominant epitope (SRPHLIRLFSRDA; UniProt P02686 87-99, looked up, fragment)”, in assay [2], the “inhibition of autoantibody binding to MBP” value is “more than 95%”.
